# Measured values as given in US7560267B2, “Apparatus and methods for on-chip monitoring of cellular reactions” (City University of Hong Kong, priority 2002, dated 2009).
# How the values were obtained:
# [1] = test system: HL60 cells; assay: On-chip ATP-dependent calcium uptake in docked HL60 cells (Fluo-3 fluorescence, concentration gradient); assay type: cell-based
# Method: A practical embodiment of the present invention will now be described with reference to a typical experiment of the type for which the present invention is particularly suitable. In particular, in the following example an embodiment of the invention will be used to calculate the threshold ATP concentration that induces calcium uptake in HL60 mammalian cells. In this example HL60 cells (leukemia, promyelocytic) were suspended in 0.5 ml fresh RPMI 1640 with Pluronic F-127 (1% w/v final) and Fluo3-AM (2 micro molar final). After 30 minutes of incubation at room temperature, cells were re-suspended in (Hank's balanced salt solution) HBSS before loading into the apparatus. The example was carried out with an apparatus as shown in FIG. 1 and manufactured as described above. Before use, the etched quartz plate and a PDMS cover were touch-bonded and irradiated with UV light for 10 minutes in a bio-safety cabinet. After filling up micro-channels with buffer by capillary action, the apparatus was securely mounted on the stage of confocal microscope. Introduction of various fluids was implemented by using a 2-20 […] auto-pipette (HLT pipette-mate). An Axiovert 100M confocal microscope (Carl Zeiss) was used for data acquisition. Profiling data analysis mode was employed to present PMT response along a specific line in the apparatus. All fluorophores were excited by Argon (488 nm) laser. An emission filter 505-530 nm was used for Fluo-3 and AO while a 560 nm (long-pass) filter was used for ethidium bromide (EB) study. Scanning parameters were kept identical throughout all experiments for a particular fluorophore. Mammalian HL60 cells uptake extracellular calcium ions when the buffer ATP concentration is beyond a particular level. The minimum ATP concentration required to induce calcium uptake is referred as the threshold concentration. In this example of the use of an embodiment of the invention, cell docking and analyte concentration gradient were combined to determine the threshold concentration of ATP-dependent calcium uptake. The fluorescence images of the microchip under different conditions are shown in FIG. 6, with about 80 docked cells along the dam. In the “control” image and intensity measurement, the background cellular signal was due to the presence of intracellular calcium in HL60 cells. When an ATP solution (2 μM) was loaded into the CW/A vial, the cellular signal intensity was increased by 3-fold in the first zone (A to B) as compared to other zones (FIGS. 6 & 7, 2 μM images). The ATP threshold concentration can therefore be visualized as being between points B and C. After washing with buffer, the same batch of docked HL60 cells were exposed to higher ATP concentrations. Using the same LLP, the threshold concentration range shifted downstream with increasing analyte concentrations. As shown in FIGS. 6 & 7, with 5 μM ATP loaded into the apparatus, the cellular fluorescence intensity-in the first (A to B) and second (C to D) zones were enhanced. The threshold concentration range was shifted to the zone between points D & E. Repeating this process with 10 μM ATP, the Ca-related fluorescence in all cells in all zones were excited, (the signal intensity at the first zone was relatively weak due to desensitization from multiple ATP stimulations.). […] Using this equation, a relationship between liquid levels H and flow quantity Q can be derived: H=RQ+KQ2 (2) where parameters R and K depends on the geometrical profile of the channels. […]
# [2] = test system: HL60 cells; assay: ATP threshold concentration by conventional fluorescence measurements (13 serial dilution experiments); assay type: cell-based; settings: 13 individual serial dilution experiments, FIG. 8
# Method: FIG. 8 is a plot of ATP threshold concentration obtained by conventional techniques for comparison purposes, In this example, first of all a viability test was carried out to confirm that after docking a sufficient number of living cells were safely docked, and then a concentration gradient was made visible by a fluorophore. When the presence of a viable number of docked cells, and the creation of a concentration gradient were confirmed, the threshold concentration for calcium uptake was calculated using the apparatus of the invention, and then the results compared with an experiment using conventional serial dilution techniques. The ATP concentration gradient along the dam structure was estimated according to the above computational model. Combining the results obtained in 2 μM and 5 μM ATP stimulations, the threshold concentration was estimated within a range of 0.16±0.02 μM. The threshold concentration was also determined using conventional fluorescence measurements. […] The threshold concentration range was determined to be 0.15-0.19 μM, which is in good agreement with the result obtained using the embodiment of the present invention.
compound,measurement,setting,value
Nc1ncnc2c1ncn2[C@@H]1O[C@H](COP(=O)(O)OP(=O)(O)OP(=O)(O)O)[C@@H](O)[C@H]1O [ATP],increase of cellular signal intensity (fold),"[1]; 2 μM ATP loaded into CW/A vial, first zone (A to B) compared to other zones",3 fold
same,cellular fluorescence intensity,"[1]; 5 μM ATP loaded, first (A to B) and second (C to D) zones",enhanced
same,Ca-related fluorescence,"[1]; 10 μM ATP loaded, all cells in all zones",excited
same,threshold concentration of ATP-dependent calcium uptake,"[1]; on-chip, HL60 cells, estimated from computational gradient model combining 2 μM and 5 μM ATP stimulations",0.16 ± 0.02 µM
same,threshold ATP concentration,"[1]; on-chip, HL60 cells, indicated by experimental results before gradient estimation",below 2 μM
same,threshold concentration range,[2],0.15 to 0.19 µM
